Where no end group is shown, it is not given here. [invdT] = inverted (3'-3') thymidine
Tests used:
CCNE gene = experiment: Semi-quantitative RT-PCR of CCNE in serum-stimulated WI-38 cells; assay type: cell-based, human; conditions: WI-38, serum stimulation
Method: Semi-quantitative RT-PCR. Following various treatments, WI-38 cells in 6-well culture dish were subjected to total RNA extraction using the TRIZOL® Reagent (Life Technologies). Total RNA (4 μg) was reversed transcribed using oligo-dT and M-MLV reverse transcriptase in a total reaction volume of 20 μl. Polymerase Chain Reactions (PCR) were carried out on 3 μl cDNA sample in the presence of […] deoxyribonucleotide triphosphates (dNTPs) and 40 μM of specific primer pairs in a total reaction volume of 50 μl. The cycling profile for PCR was as follow: 30 cycles of denaturation (94° C., 30 sec), annealing (51° C., 30 sec) and extension (72° C., 2 min), with a 2-minute initial denaturation step at 94° C. and a 10-minute polishing step at 72° C. at the end. Sequences of gene-specific primers are available upon request. Post-PCR samples were analyzed by agarose gel electrophoresis.
FIG. 14: (A) E-Br1 or E-Br2 attenuates mitogen-stimulated CCNE gene induction. Sub-confluent WI-38 cells were serum-starved for 72 h. Following DNA enzyme transfection, the cultures were re-stimulated with serum and allowed to proliferate. After 20 h, cells were harvested and total RNA extracted for semi-quantitative RT-PCR to assess CCNE expression. β-actin was included as an internal control. PCR products were resolved by agarose gel electrophoresis and ethidium bromide-stained DNA bands were visualized under UV. […]

WI-38 cells = experiment: Colony formation assay of WI-38 cells (crystal violet); assay type: cell-based, human; conditions: WI-38, serum-induced, 72 h
Method: DNA enzyme transfection. WI-38 cells were rendered quiescent by cultivation in serum-free medium for 72 h before being transfected with DNA enzyme (0.1 μM) using Superfect as reported previously (Santiago, F. S., et al. Nat Med 5, 1264-1269 (1999)) in accordance to manufacturer's recommendations (Qiagen).
Cell proliferation assays. For the BrdU incorporation assays, growth-quiescent WI-38 cells in 96-well dishes were transfected with DNA enzyme and/or 100 ng of pCMV/E2F1, pCMV/DP1, pRSV/Cyclin E, or pCMV/Cdk2 and then exposed to Bromodeoxyuridine (BrdU, 100 μM) in the presence or absence of 10% FBS for 20 h. Bromodeoxyuridine (BrdU) incorporation was monitored with a calorimetric ELISA assay using a cell proliferation kit according to manufacturer's recommendations (Boehringer Mannheim). For manual cell count, growth-quiescent WI-38 cells in 24-well dishes were transfected with DNA enzyme and then exposed to 10% FBS for 72 h. The cells were rinsed with PBS, pH 7.4, and trypsinized, and 10 μl of cell suspension was taken from each sample and mixed with equal volume of trypan blue stain (Sigma, 0.4% w/v in 1×PBS). The number of unstained cells was enumerated manually using a hemocytometer. […] Cells were stained in situ with crystal violet (0.75% w/v hexamethyl-p-rosaniline chloride [SIGMA], 50% ethanol, 1.75% w/v paraformaldehyde, 0.25% w/v NaCl) for 10 min, and then rinsed thoroughly with deionized water to remove excess stains.
FIG. 12: (A) E-Br1 or E-Br2 inhibits cell proliferation. Sub-confluent WI-38 cells were serum-starved for 72 h. Following DNA enzyme transfection, the cultures were re-stimulated with serum and allowed to proliferate. After 72 h, cells were harvested for viable cell count analysis. 10 μl of cell suspension from each sample was mixed with equal volume of 0.4% trypan blue stain. The number of unstained cells was enumerated manually using a hemocytometer. Data represent the average of at least two independent experiments. […] (B) E-Br1 or E-Br2 suppresses colony formation. Sub-confluent WI-38 cells were serum-starved for 72 h. […]

[1] = test system: Caski (cervical carcinoma); experiment: Anti-proliferative phenotypes in Caski cells; assay type: cell-based; conditions: data not shown
Fbxw7 mRNA = experiment: Semi-quantitative RT-PCR of Fbxw7 in U2OS cells; assay type: cell-based, human; conditions: U2OS, 5, 10 or 20 μM
Method: Semi-quantitative RT-PCR. Total RNA was isolated from U2OS cells or U2OS-ER-E2F-1 cells (grown with or without 1.0 μM OHT and/or 10 μg/ml cycloheximide) using the TRIZOL® Reagent (Life Technologies). Total RNA (4 μg) was reverse transcribed using oligo-dT and M-MLV reverse transcriptase in a total reaction volume of 20 μl. Polymerase Chain Reactions (PCR) were carried out on 3 μl cDNA samples in the presence of […] deoxyribonucleotide triphosphates (dNTPs) and 40 μM of specific primer pairs in a total reaction volume of 50 μ. The cycling profile for PCR was as follow: 30 cycles of denaturation (94° C., 30 sec), annealing (51° C., 30 sec) and extension (72° C., 2 min), with a 2-minute initial denaturation step at 94° C. and a 10-minute terminal polishing step at 72° C. Sequences of gene-specific primers are available upon request. PCR amplification products were analyzed by agarose gel electrophoresis.
FIG. 8: The role(s) of the TRIP-Br integrator function in cyclin E regulation. […] U2OS cells exposed to 5, 10 or 20 μM of decoy peptides were analyzed for Fbxw7 mRNA transcript levels by semi-quantitative RT-PCR. H-actin was co-amplified as an internal control; (C) cyclin-E and Fbxw7 expression was analyzed by semi-quantitative RT-PCR using total RNA from sub-confluent U2OS ER-E2F-1 cells grown with or without OHT and/or cycloheximide (CHX) for 2 h as indicated. […]

cyclins A, D and E = experiment: Western blot of cyclins A, D and E in U2OS cells exposed to decoy peptides; assay type: cell-based, human; conditions: U2OS, 5, 10 or 20 μM, 48 h
Method: Denaturing SDS-PAGE and western blotting. Proteins from whole cell lysate and IP complexes were separated using standard denaturing polyacrylamide gel electrophoresis as described previously (Hsu, S. I. H., et al. EMBO J 20, 2273-2285 (2001)).
FIG. 8: The role(s) of the TRIP-Br integrator function in cyclin E regulation. (A) Western blot analysis of the expression of cyclins A, D and E in whole cell extracts derived from U2OS cells exposed to 5, 10 or 20 μM of decoy peptides for 48 h. Cdk2 served as a loading control; (B) Dosage-dependent effects of decoy peptides on Fbxw7 expression. U2OS cells exposed to 5, 10 or 20 μM of decoy peptides were analyzed for Fbxw7 mRNA transcript levels by semi-quantitative RT-PCR. H-actin was co-amplified as an internal control; (C) cyclin-E and Fbxw7 expression was analyzed by semi-quantitative RT-PCR using total RNA from sub-confluent U2OS ER-E2F-1 cells grown with or without OHT and/or cycloheximide (CHX) for 2 h as indicated. H-actin was included as an internal control.

[2] = test system: CNE2 (nasal pharyngeal carcinoma); experiment: Anti-proliferative phenotypes in CNE2 cells; assay type: cell-based, human; conditions: data not shown

Substance	serum-induced CCNE gene activation (CCNE gene)	colony forming potential (WI-38 cells)	response of Caski cells [1]	expression level of Fbxw7 mRNA (Fbxw7 mRNA)	cyclin E protein level (cyclins A, D and E)	protein levels of cyclin D1 and cyclin A2 (cyclins A, D and E)	response of CNE2 cells [2]
5′-T TACCCAACAGGCTAGCTACAACGAATATCACA-3′ (DNA TTACCCAACAGGCTAGCTACAACGAATATCACA; DNA, 3' [invdT], backbone not given here) [E-Br2]	suppressed	significantly reduced colony forming potential					
ERQIKIWFQNRRMKWKKATGCLLDDGLEGLFEDID (ERQIKIWFQNRRMKWKKATGCLLDDGLEGLFEDID-NH2) [*Br1]			in manners similar to those exhibited by U2OS cells	down-regulated the expression level of Fbxw7 in a dose-dependent fashion	dose-dependent accumulation of cyclin E protein	without affecting the protein levels	in manners similar to those exhibited by U2OS cells
ERQIKIWFQNRRMKWKKTGFLTDLTLDDILFADID (ERQIKIWFQNRRMKWKKTGFLTDLTLDDILFADID-NH2) [*Br2]			in manners similar to those exhibited by U2OS cells	down-regulated the expression level of Fbxw7 in a dose-dependent fashion	dose-dependent accumulation of cyclin E protein	without affecting the protein levels	in manners similar to those exhibited by U2OS cells
5′-T TGCTCAGCAGGCTAGCTACAACGACTTGCTCA-3′ (DNA TTGCTCAGCAGGCTAGCTACAACGACTTGCTCA; DNA, 3' [invdT], backbone not given here) [E-Br1]	suppressed	significantly reduced colony forming potential					

— patent US7223733B2, “Modulation of TRIP-Br function and method of treating proliferative disorders” (National University of Singapore, priority 2004, dated 2007)
